Data taken from paper PMC5623949, “Exploiting the 2-Amino-1,3,4-thiadiazole Scaffold To Inhibit Trypanosoma brucei Pteridine Reductase in Support of Early-Stage Drug Discovery” (ACS Omega, 2017).

What was measured:
hDHFR = molecular target: T1, hDHFR (Homo sapiens, UniProt P00374); experiment: biochemical; set-up: human DHFR enzyme inhibition
T1 construct: gene DHFR
T1 sequence (P00374 1-187): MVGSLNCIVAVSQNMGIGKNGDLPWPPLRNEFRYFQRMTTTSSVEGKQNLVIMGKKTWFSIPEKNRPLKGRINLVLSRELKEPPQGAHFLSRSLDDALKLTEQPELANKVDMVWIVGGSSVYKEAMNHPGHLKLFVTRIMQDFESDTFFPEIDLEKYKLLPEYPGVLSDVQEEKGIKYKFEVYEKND
In short: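 hDHFR inhibition tested at a single concentration of 100 μM, expressed as percent inhibitory activity.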

hERG = molecular target: T2, hERG (Homo sapiens, UniProt Q12809); set-up: hERG channel inhibition
T2 construct: gene KCNH2
Experimental: (§1) Independent of the effect of any antiparasitic potential of compounds, they were evaluated using a panel of early-toxicity assays comprising cytotoxicity (A549, human lung adenocarcinoma epithelial cell line and WI-38, human lung fibroblasts), mitochondrial toxicity (786-O, human renal carcinoma cell line), hERG inhibition,[31] cytochrome P450 inhibition (CYP1A2, CYP2C9, CYP2C19, CYP2D6, and CYP3A4),[31] and Aurora B kinase inhibition. […] For the two compounds active against TbPTR1 (4m and 4o), IC50 against hERG, cytochrome P450, and mitochondrial toxicity were determined (reported in Supporting Information). We observed that the dose of compounds 4m, 4o, 4c, and 3k was 4 μM in the potentiation assays. […] In the case of hERG, CYP2D6, CYP2A9, CYP2C19, and mitochondrial toxicity, there is a selectivity index of around 3–4 fold, thus showing an acceptable profile.

CYP2D6 = CYP2D6 (Homo sapiens, UniProt P10635); experiment: in vitro; set-up: cytochrome P450 isoform inhibition
Experimental: as §1

CYP2C19 = CYP2C19 (Homo sapiens, UniProt P33261); experiment: in vitro; set-up: cytochrome P450 isoform inhibition
Experimental: as §1

CYP3A4 = CYP3A4 (Homo sapiens, UniProt P08684); experiment: in vitro; set-up: cytochrome P450 isoform inhibition
Experimental: as §1

CYP1A2 = molecular target: T3, CYP1A2 (Homo sapiens, UniProt P05177); experiment: in vitro; set-up: cytochrome P450 isoform inhibition
T3 sequence (P05177 1-516): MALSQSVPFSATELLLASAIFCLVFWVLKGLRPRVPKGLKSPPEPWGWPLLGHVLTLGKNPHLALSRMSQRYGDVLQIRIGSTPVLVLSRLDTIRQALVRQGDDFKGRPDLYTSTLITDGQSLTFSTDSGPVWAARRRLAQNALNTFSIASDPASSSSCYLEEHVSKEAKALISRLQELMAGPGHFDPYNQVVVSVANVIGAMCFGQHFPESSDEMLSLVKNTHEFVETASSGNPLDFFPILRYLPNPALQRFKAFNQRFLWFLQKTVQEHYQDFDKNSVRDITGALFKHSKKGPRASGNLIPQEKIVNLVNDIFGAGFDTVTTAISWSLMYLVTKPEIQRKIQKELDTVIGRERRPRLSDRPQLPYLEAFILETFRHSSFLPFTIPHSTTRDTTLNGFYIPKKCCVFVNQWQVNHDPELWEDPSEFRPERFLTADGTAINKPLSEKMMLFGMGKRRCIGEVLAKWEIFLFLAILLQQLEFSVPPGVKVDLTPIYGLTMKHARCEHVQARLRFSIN
Experimental: as §1

CYP2C9 = CYP2C9 (Homo sapiens, UniProt P11712); experiment: in vitro; set-up: cytochrome P450 isoform inhibition
Experimental: as §1

[1] = tested on: T. b. brucei Lister 427 bloodstream forms; experiment: In vitro activity against T. brucei (HTS SYBR Green I growth inhibition assay); assay type: cell-based, Trypanosoma brucei brucei; details: 50 μM, standard deviation within ±10% of the value; for inhibition at 50 µM: Trypanosoma brucei, read-out: % Inhibition T. brucei at 50 μM
TbDHFR = molecular target: T4, TbDHFR (Trypanosoma brucei brucei, UniProt Q27783); experiment: TbDHFR enzyme inhibition (spectrophotometric); assay type: biochemical; details: 100 μM; Table S3
T4 construct: made in house

786-O = experiment: cells; set-up: mitochondrial toxicity in 786-O cells; details: Homo sapiens, 786-0
Experimental: as §1

[2] = tested on: THP-1-derived macrophages; experiment: Cytotoxicity against THP-1 macrophages (MTT); assay type: cell-based, human; details: 100 μM
Experimental: The effect of compounds 3k, 4h, 4m, and 4o on THP-1-derived macrophages was assessed by the colorimetric MTT assay [3-(4,5-dimethylthiazol-2-yl)-2,5-diphenyl tetrazolium bromide]. Briefly, 1 × 10^6 THP-1 cells were differentiated into macrophages by addition of 20 ng/mL of phorbol-myristate 13-acetate (PMA, Sigma-Aldrich) for 18 h, followed by replacement with a fresh medium and further incubation for 24 h. The cells were incubated with compounds ranging from 100 to 3 μM after dilution in the RPMI complete medium containing a maximum amount of 1% DMSO. After incubation for 72 h at 37 °C and 5% CO2, the medium was removed and 0.5 mg/mL MTT solution was added. The plates were incubated for 4 additional hours to allow viable cells to convert MTT into a purple formazan product. Solubilization of formazan crystals was achieved by addition of 2-propanol, and absorbance was read at 570 nm using a Synergy 2 multi-mode reader (BioTek).

CYP2C19, sequence (P33261 whole entry, canonical isoform): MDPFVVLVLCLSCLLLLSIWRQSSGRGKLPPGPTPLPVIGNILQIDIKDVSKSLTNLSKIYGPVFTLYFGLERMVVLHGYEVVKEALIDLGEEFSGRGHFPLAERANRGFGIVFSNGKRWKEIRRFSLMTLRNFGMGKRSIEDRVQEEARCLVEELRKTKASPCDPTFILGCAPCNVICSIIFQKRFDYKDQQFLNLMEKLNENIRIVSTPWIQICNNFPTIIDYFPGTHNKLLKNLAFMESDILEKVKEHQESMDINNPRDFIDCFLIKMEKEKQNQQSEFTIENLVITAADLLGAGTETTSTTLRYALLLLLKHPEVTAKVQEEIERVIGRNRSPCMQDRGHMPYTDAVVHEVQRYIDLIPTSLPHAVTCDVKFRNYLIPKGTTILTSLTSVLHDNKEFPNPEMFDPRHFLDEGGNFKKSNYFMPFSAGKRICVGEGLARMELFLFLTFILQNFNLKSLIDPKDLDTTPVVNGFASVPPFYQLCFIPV
CYP2C9, sequence (P11712 whole entry, canonical isoform): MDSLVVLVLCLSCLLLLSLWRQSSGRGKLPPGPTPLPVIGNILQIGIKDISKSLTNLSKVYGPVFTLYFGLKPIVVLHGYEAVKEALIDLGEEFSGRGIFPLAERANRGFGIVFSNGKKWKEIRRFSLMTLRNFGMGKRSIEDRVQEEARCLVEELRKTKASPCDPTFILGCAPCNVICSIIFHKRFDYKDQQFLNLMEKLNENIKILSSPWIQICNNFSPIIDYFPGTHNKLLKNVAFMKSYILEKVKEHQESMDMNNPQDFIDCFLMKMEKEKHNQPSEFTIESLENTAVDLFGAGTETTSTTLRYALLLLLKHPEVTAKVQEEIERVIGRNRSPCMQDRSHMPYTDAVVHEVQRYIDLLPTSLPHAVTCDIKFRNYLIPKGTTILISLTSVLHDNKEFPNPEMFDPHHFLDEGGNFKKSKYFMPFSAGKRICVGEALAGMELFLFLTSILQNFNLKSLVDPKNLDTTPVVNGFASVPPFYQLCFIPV
CYP2D6, sequence (P10635 whole entry, canonical isoform): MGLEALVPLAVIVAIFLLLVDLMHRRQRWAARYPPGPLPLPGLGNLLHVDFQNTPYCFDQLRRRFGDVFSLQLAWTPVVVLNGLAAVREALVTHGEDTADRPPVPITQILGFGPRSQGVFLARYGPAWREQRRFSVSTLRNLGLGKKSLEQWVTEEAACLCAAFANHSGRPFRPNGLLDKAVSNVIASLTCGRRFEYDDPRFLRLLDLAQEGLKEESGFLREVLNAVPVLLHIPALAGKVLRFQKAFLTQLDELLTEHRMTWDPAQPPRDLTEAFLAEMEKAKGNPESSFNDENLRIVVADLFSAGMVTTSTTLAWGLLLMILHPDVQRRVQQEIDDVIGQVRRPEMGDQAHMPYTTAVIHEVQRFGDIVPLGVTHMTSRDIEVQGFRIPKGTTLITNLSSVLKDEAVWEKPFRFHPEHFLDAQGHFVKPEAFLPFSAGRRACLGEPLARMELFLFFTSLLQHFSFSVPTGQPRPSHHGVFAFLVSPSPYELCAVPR
T2 sequence (Q12809 whole entry): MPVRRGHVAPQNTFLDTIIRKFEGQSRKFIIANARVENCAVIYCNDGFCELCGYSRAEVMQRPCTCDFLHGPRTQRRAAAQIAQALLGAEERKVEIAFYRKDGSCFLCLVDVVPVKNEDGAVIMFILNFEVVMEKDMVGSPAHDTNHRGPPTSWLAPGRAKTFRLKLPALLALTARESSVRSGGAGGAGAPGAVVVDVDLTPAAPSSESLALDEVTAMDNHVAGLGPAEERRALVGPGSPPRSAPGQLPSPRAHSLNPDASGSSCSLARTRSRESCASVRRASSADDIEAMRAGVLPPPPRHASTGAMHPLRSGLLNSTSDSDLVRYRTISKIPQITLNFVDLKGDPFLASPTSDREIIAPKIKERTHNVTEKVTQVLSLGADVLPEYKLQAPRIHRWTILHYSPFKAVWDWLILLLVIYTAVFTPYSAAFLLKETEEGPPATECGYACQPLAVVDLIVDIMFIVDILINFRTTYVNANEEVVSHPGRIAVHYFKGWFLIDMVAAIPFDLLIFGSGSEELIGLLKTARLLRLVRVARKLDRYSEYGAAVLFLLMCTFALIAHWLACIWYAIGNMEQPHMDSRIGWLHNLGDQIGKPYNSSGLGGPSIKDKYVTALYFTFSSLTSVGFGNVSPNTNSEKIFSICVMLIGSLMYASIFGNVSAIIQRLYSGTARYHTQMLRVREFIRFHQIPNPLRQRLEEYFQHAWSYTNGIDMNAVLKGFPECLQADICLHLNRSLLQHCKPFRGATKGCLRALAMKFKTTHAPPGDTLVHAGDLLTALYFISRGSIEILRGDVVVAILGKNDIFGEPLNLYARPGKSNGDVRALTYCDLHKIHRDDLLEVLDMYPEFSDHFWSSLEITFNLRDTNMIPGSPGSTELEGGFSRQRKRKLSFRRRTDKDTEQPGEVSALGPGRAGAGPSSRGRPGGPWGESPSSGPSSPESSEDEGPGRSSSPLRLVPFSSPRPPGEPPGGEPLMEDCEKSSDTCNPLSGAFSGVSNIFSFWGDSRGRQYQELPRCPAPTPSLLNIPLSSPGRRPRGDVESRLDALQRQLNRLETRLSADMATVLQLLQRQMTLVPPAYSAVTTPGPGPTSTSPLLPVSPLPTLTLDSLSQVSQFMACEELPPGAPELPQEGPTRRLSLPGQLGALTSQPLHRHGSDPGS
T4 sequence (Q27783 whole entry): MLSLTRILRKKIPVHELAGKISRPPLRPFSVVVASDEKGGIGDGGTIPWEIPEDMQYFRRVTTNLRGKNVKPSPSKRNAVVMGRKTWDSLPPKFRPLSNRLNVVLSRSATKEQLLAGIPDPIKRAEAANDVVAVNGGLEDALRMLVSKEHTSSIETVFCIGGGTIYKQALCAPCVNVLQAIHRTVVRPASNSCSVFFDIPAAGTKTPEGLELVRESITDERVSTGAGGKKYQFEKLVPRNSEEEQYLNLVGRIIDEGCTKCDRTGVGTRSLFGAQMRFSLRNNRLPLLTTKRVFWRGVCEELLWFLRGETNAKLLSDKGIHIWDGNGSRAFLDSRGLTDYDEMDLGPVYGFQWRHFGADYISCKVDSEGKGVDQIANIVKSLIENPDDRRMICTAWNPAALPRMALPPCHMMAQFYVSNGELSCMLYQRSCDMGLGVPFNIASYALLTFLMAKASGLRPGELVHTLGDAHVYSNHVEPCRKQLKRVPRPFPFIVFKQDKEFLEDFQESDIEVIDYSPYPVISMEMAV
CYP3A4, sequence (P08684 whole entry, canonical isoform): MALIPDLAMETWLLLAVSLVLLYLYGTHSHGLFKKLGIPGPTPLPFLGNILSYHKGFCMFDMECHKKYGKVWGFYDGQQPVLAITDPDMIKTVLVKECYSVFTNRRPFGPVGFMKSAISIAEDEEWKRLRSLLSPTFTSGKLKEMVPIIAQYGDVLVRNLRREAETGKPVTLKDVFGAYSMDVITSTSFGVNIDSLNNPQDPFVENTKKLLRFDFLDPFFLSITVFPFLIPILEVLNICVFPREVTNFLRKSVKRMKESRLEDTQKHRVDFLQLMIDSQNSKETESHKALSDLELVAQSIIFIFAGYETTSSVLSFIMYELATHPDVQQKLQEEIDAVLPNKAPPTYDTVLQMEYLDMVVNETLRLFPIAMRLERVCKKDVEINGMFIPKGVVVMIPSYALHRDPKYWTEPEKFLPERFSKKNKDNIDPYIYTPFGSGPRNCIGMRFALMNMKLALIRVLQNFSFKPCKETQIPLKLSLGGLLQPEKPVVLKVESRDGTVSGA

For `Nc1nnc(NCc2ccc(-c3ccccc3)cc2)s1` [4m], the inhibition at 100 µM (hDHFR) was 40%, the inhibition at 10 µM (hERG) was 52.6 ± 11.6% and the inhibition at 10 µM (CYP2D6) was 53.6 ± 0.6%. It also gave an inhibition at 10 µM (CYP2C19) of 22.5 ± 4.7%, an inhibition at 10 µM (CYP3A4) of 25.6 ± 6.3% and an inhibition at 10 µM (CYP1A2) of 60.4 ± 4.5%. The inhibition at 10 µM (CYP2C9) was 46.9 ± 4.4%, the inhibition at 50 µM [1] was 6.6% and the “inhibitory activity against TbDHFR” value (TbDHFR) was “neither 4m nor 4o is able to inhibit”. The inhibition at 10 µM (786-O) was -2.5 ± 6.1% and the “toxicity in THP-1 cells alone vs combination with equimolar MTX” value [2] was “no increase in toxicity”.

`Nc1nnc(NCCc2cccs2)s1` [4o, N2G(2G(thiophenG2Gyl)ethyl)G1,3,4GthiadiazoleG2,5Gdiamine] showed an inhibition at 100 µM (hDHFR) of 24%, an inhibition at 10 µM (hERG) of 95.4 ± 8% and an inhibition at 10 µM (CYP2D6) of 81.2 ± 1.2%. The inhibition at 10 µM (CYP2C19) was -20.9 ± 6.1%, the inhibition at 10 µM (CYP3A4) was 30.4 ± 4.5% and the inhibition at 10 µM (CYP1A2) was -2.9 ± 3.4%. For the same compound, the inhibition at 10 µM (CYP2C9) was 3.1 ± 4.8%, the “% Inhibition T. brucei at 50 μM” value [1] was “poor antiparasitic activity” and the inhibition at 50 µM [1] was 37.9%. For the same compound, the “inhibitory activity against TbDHFR” value (TbDHFR) was “neither 4m nor 4o is able to inhibit” and the inhibition at 10 µM (786-O) was 0.5 ± 4.8%.
